The source of these data is patent US20240116946A1 (Gilead Sciences, Inc., priority 2022, published 2024).

Where two headings read alike, the source gives them in different places. Bounds are passed on as bounds.

Assay [1] deals with SARS-CoV-2-NLuc. Briefly: microbe, parasite or virus in culture. In kind it is cell-based, SARS Coronavirus 2.
The target in assay [2] is recombinant SARS-CoV-2 Main protease (Mpro) (Severe acute respiratory syndrome coronavirus 2 (2019-nCoV) (SARS-CoV-2), UniProt P0DTD1). Nature of the assay: Cov Mpro Biochemical IC50 Assay.
Where [3] appears, read: Severe acute respiratory syndrome coronavirus, 48 h, read-out: MPro EC50.
The mark [4] stands for this setting: recombinant SARS-CoV-2 Mpro 7.5 nM, fluorogenic peptide substrate 40 μM, read-out: MPro IC50.
Where [5] appears, read: recombinant SARS-CoV-2 Mpro, fluorogenic peptide substrate, read-out: MPro IC50.
[6] abbreviates: Severe acute respiratory syndrome coronavirus, 48 h; read-out: MPro EC50.
The mark [7] stands for this setting: MPro IC50, recombinant SARS-CoV-2 Mpro 7.5 nM, fluorogenic peptide substrate 40 μM.

Broadly, the EC50 is the midpoint of the concentration-response curve. As usually defined, the IC50 is the point on the concentration scale where inhibition reaches its midpoint. As for `N#CCCn1c(=O)n(-c2cncc3cccc(F)c23)c(=O)c2sc(-c3ccccc3Cl)cc21` [Example 1084], the EC50 in assay [1] (setting [3]) amounted to 11.7 nM. Besides, the IC50 in assay [2] (setting [4]) stood at 7.62 nM.
`COc1cc(-c2cc3[nH]c(=O)n(-c4cncc5c(C#N)nn(C)c45)c(=O)c3s2)c(Cl)cc1F` [Example 977]: in assay [1] (setting [3]), the EC50 worked out at 101 nM. Further, the IC50 in assay [2] (setting [4]) stood at 21.2 nM.
As for `COc1cnc(Cl)c(-c2cc3c(s2)c(=O)n(-c2cncc4cccc(F)c24)c(=O)n3CCC#N)c1` (single isomer, unassigned) [Example 1094, 3-(6-(2-chloro-5-methoxypyridin-3-yl)-3-(5-fluoroisoquinolin-4-yl)-2,4-dioxo-3,4-dihydrothieno[3,2-d]pyrimidin-1(2H)-yl)propanenitrile], the EC50 in assay [1] (read-out: MPro EC50) stood at 9.71 nM. In assay [2] (setting [4]), the IC50 is 3.27 nM.
On to `O=c1[nH]c2cc(-c3c(Cl)cccc3-c3ccc4c(c3)OCCO4)sc2c(=O)n1-c1cncc2ccccc12` [Example 354], for which the EC50 in assay [1] (setting [3]) is 12.8 nM. Further, the IC50 in assay [2] (setting [5]) is 45.6 nM.
With `COc1ccc(C#N)c(-c2cc3[nH]c(=O)n(-c4cncc5ccccc45)c(=O)c3s2)c1` [Example 532, 2-(3-(isoquinolin-4-yl)-2,4-dioxo-1,2,3,4-tetrahydrothieno[3,2-d]pyrimidin-6-yl)-4-methoxybenzonitrile], the EC50 in assay [1] (setting [3]) was determined as 17.4 nM. Further, the IC50 in assay [2] (setting [4]) is less than 2.65 nM.
For `COc1cncc(-n2c(=O)c3sc(-c4ccccc4C#N)cc3n(CCC#N)c2=O)c1` [Example 814], in assay [1] (setting [6]), the EC50 was found to be 134 nM. For the same molecule, the IC50 in assay [2] (setting [4]) turned out to be 44.6 nM.
For `Cn1ncc2cncc(-n3c(=O)[nH]c4cc(-c5c(F)ccc6[nH]ncc56)sc4c3=O)c21` [Example 1014, 6-(5-fluoro-1H-indazol-4-yl)-3-(1-methylpyrazolo[4,3-c]pyridin-7-yl)-1H-thieno[3,2-d]pyrimidine-2,4-dione] the same measures were more than 1000 nM and more than 1000 nM.
Take `O=c1[nH]c2cc(-c3ccccc3Cl)sc2c(=O)n1-c1cnnc2ccccc12` [Example 131]: the EC50 in assay [1] (setting [3]) amounted to 633 nM. In addition, in assay [2] (setting [5]), the IC50 was 97 nM.
With `COc1ccc(Cl)c(-c2cc3[nH]c(=O)n(-c4cncc5ccc(C)nc45)c(=O)c3s2)c1` [Example 459], the EC50 in assay [1] (setting [3]) turned out to be 20.2 nM. Further, in assay [2] (setting [4]), the IC50 is 18.1 nM.
For `O=c1[nH]c2cc(-c3cc(OC(F)(F)F)ccc3Cl)ccc2c(=O)n1-c1cncc2ccccc12` [Example 181], the EC50 in assay [1] (setting [3]) turned out to be 438 nM. In assay [2] (setting [5]), the IC50 came out at 1220 nM.
For the molecule `Cn1ncc2cncc(-n3c(=O)c4sc(-c5ccc(F)cc5Cl)cc4n(CCC#N)c3=O)c21` [Example 769, 3-(6-(2-chloro-4-fluorophenyl)-3-(1-methyl-1H-pyrazolo[4,3-c]pyridin-7-yl)-2,4-dioxo-3,4-dihydrothieno[3,2-d]pyrimidin-1(2H)-yl)propanenitrile], the EC50 in assay [1] (setting [6]) was determined as 15.6 nM. For the same molecule, the IC50 in assay [2] (setting [4]) came to 8.55 nM.
Take `Cn1ncc(-c2cccc(Cl)c2-c2cc3[nH]c(=O)n(-c4cncc5ccccc45)c(=O)c3s2)c1C(F)(F)F` [Example 526]: in assay [1] (setting [3]), the EC50 stood at 8.34 nM. In assay [2] (setting [4]), the IC50 is 15.7 nM.
For `CC1(C)Cc2c(-c3cccc(Cl)c3-c3cc4[nH]c(=O)n(-c5cncc6ccccc56)c(=O)c4s3)cnn2C1` [Example 524], the EC50 in assay [1] (setting [3]) worked out at 5.95 nM. The IC50 in assay [2] (setting [4]) was 7.83 nM.
For the molecule `COc1cc(-c2nc3[nH]c(=O)n(-c4cncc5ccccc45)c(=O)c3s2)c(Cl)cc1F` [Example 704], the EC50 in assay [1] (setting [6]) came out at 248 nM. Besides, the half-inhibitory concentration (IC50) in assay [2] (setting [7]) turned out to be 34.4 nM.
Take `CCn1cc2cncc(-n3c(=O)[nH]c4cc(-c5cc(OC)c(F)cc5Cl)sc4c3=O)c2n1` [Example 734]: the EC50 in assay [1] (setting [3]) is 43.5 nM. Besides, in assay [2] (setting [4]), the IC50 was found to be 5.17 nM.
On to `CC(=O)NC1CCN(c2ccc3cncc(-n4c(=O)[nH]c5cc(-c6ccccc6Cl)sc5c4=O)c3c2)CC1` [Example 388], for which, in assay [1] (setting [3]), the EC50 is 212 nM. In addition, the IC50 in assay [2] (setting [5]) is 18.7 nM.
For `COc1cc(-c2cc3c(s2)c(=O)n(-c2cncc4nc(C(F)(F)F)n(C)c24)c(=O)n3CCC#N)c(C#N)cc1F` [Example 859], in assay [1] (setting [3]), the EC50 worked out at 169 nM. For the same molecule, the IC50 in assay [2] (setting [4]) was determined as 62.8 nM.
Regarding `COc1cccc(C#N)c1-c1cc2[nH]c(=O)n(-c3cncc4cnn(C)c34)c(=O)c2s1` [Example 839, 3-methoxy-2-(3-(1-methyl-1H-pyrazolo[4,3-c]pyridin-7-yl)-2,4-dioxo-1,2,3,4-tetrahydrothieno[3,2-d]pyrimidin-6-yl)benzonitrile], the EC50 in assay [1] (setting [3]) came out at 463 nM. Besides, in assay [2] (setting [4]), the IC50 is 91.3 nM.
With `CC(C)n1cc(-c2cccc(Cl)c2-c2ccc3c(=O)n(-c4cncc5ccccc45)c(=O)[nH]c3c2)c(C(F)(F)F)n1` [Example 282], in assay [1] (setting [3]), the concentration giving a half-maximal response (EC50) came out at 72.4 nM. Further, the IC50 in assay [2] (setting [5]) was found to be 148 nM.
`CCOc1cc(-c2cc(OC)c(F)cc2Cl)cc2[nH]c(=O)n(-c3cncc4ccccc34)c(=O)c12` [Example 676]: the EC50 in assay [1] (setting [3]) worked out at 25.3 nM. Besides, in assay [2] (setting [4]), the IC50 came to 31.6 nM.
Consider `O=c1[nH]c2cc(-c3c(Cl)cccc3-c3cncc(N4CCOCC4)c3)ccc2c(=O)n1-c1cncc2ccccc12` [Example 279], for which the EC50 in assay [1] (setting [3]) amounted to 7.65 nM. Further, the IC50 in assay [2] (setting [5]) was found to be 5.27 nM.
With `COc1cc(-c2cc3c(s2)c(=O)n(-c2cncc4nc(-c5coc(C)n5)n(C)c24)c(=O)n3CCC#N)c(Cl)cc1F` [Example 757], the EC50 in assay [1] (setting [3]) is 40.3 nM. In addition, in assay [2] (setting [4]), the IC50 was found to be 11.4 nM.
For `COc1cc(-c2cc3c(s2)c(=O)n(-c2cncc4c2c(C(F)(F)F)nn4COCC[Si](C)(C)C)c(=O)n3CCC#N)c(Cl)cc1F` [Example 1046, 3-(6-(2-chloro-4-fluoro-5-methoxyphenyl)-2,4-dioxo-3-(3-(trifluoromethyl)-1-((2-(trimethylsilyl)ethoxy)methyl)-1H-pyrazolo[3,4-c]pyridin-4-yl)-3,4-dihydrothieno[3,2-d]pyrimidin-1(2H)-yl)propanenitrile], in assay [1] (setting [6]), the EC50 was 129 nM. The IC50 in assay [2] (setting [7]) turned out to be 35.8 nM.
In the case of `COc1cc(-c2cc3c(s2)c(=O)n(-c2cncc(CO)c2)c(=O)n3CCC#N)c(C#N)cc1F` [Example 1102], in assay [1] (setting [3]), the EC50 stood at 568 nM. Besides, the IC50 in assay [2] (setting [4]) amounted to 4.12 nM.
For `COc1cc(-c2cc3c(s2)c(=O)n(-c2cncc4nnn(C5CC5)c24)c(=O)n3CC2(C#N)CC2)c(Cl)cc1F` [Example 692] the same measures were 2.44 nM and 4.35 nM.
In the case of `CC(C)(C)c1cncc(-n2c(=O)[nH]c3cc(-c4ccccc4Cl)sc3c2=O)c1` [Example 577], in assay [1] (setting [6]), the EC50 was found to be 12100 nM. Also, the IC50 in assay [2] (setting [4]) was more than 50000 nM.
For `COc1cc(-c2cc3[nH]c(=O)n(-c4cncc5ccccc45)c(=O)c3s2)c(C#N)cn1` [Example 542], in assay [1] (setting [3]), the EC50 was 1200 nM. Moreover, the IC50 in assay [2] (setting [4]) was determined as 249 nM.
Turning to `O=c1[nH]c2cc(-c3c(Cl)cccc3-c3ccc4c(c3)OC(F)(F)O4)sc2c(=O)n1-c1cncc2ccccc12` [Example 353], the EC50 in assay [1] (setting [3]) was 31.5 nM. Further, the IC50 in assay [2] (setting [5]) amounted to 143 nM.
As to `COc1cc(-c2cc3[nH]c(=O)n(-c4cncc5cccc(F)c45)c(=O)c3s2)c(Cl)cc1F` [Example 444, 6-(2-chloro-4-fluoro-5-methoxyphenyl)-3-(5-fluoroisoquinolin-4-yl)thieno[3,2-d]pyrimidine-2,4(1H,3H)-dione], the EC50 in assay [1] (setting [3]) came out at 8.86 nM. In assay [2] (setting [4]), the IC50 was 5.45 nM.
For the molecule `COc1ccc(Cl)c(-c2ccc3c(=O)n(-c4cncc5ccc(N6CC7(CNC(=O)C7)C6)cc45)c(=O)[nH]c3c2)c1` [Example 411], the EC50 in assay [1] (setting [6]) stood at 221 nM. Moreover, the IC50 in assay [2] (setting [4]) was found to be 8.93 nM.
On to `O=c1ccc2cncc(-n3c(=O)[nH]c4cc(-c5ccccc5Cl)sc4c3=O)c2[nH]1` [Example 452, 6-(2-chlorophenyl)-3-(2-oxo-1,2-dihydro-1,6-naphthyridin-8-yl)thieno[3,2-d]pyrimidine-2,4(1H,3H)-dione], for which the EC50 in assay [1] (setting [3]) is 82.5 nM. The IC50 in assay [2] (setting [4]) was 9.24 nM.
For `COc1cc(-c2cc3[nH]c(=O)n(-c4cncc5ccccc45)c(=O)c3s2)c(C)cc1Cl` [Example 716] the same measures were 18.7 nM and 15.9 nM.
For the molecule `CC(C)COc1ccc(Cl)c(-c2ccc3c(=O)n(-c4cncc5ccccc45)c(=O)[nH]c3c2)c1` [Example 256], the EC50 in assay [1] (setting [3]) came out at 699 nM. Moreover, in assay [2] (setting [5]), the IC50 came to 3990 nM.
In the case of `O=c1[nH]c2cc(-c3ccccc3Cl)sc2c(=O)n1-c1cncc2c1cnn2CC(F)(F)F` [Example 492], in assay [1] (setting [3]), the EC50 worked out at 4840 nM. Further, in assay [2] (setting [4]), the IC50 was more than 50000 nM.
`CN1C(=O)COc2ccc(-c3cccc(Cl)c3-c3ccc4c(=O)n(-c5cncc6ccccc56)c(=O)[nH]c4c3)cc21` [Example 196]: the EC50 in assay [1] (setting [3]) stood at 15.6 nM. Moreover, the IC50 in assay [2] (setting [5]) is 17.4 nM.
For `Cc1c(C2CCOCC2)cncc1-n1c(=O)[nH]c2cc(-c3ccccc3Cl)sc2c1=O` [Example 119, 6-(2-chlorophenyl)-3-(4-methyl-5-(tetrahydro-2H-pyran-4-yl)pyridin-3-yl)thieno[3,2-d]pyrimidine-2,4(1H,3H)-dione] the same measures were 2760 nM and 386 nM.
In the case of `COc1ccc(Cl)c(-c2cc3[nH]c(=O)n(-c4cncc(CCC(=O)N5CCOCC5)c4)c(=O)c3s2)c1` [Example 575, 6-(2-chloro-5-methoxy-phenyl)-3-[5-(3-morpholino-3-oxo-propyl)-3-pyridyl]-1H-thieno[3,2-d]pyrimidine-2,4-dione], in assay [1] (setting [6]), the EC50 was found to be 235 nM. Moreover, the IC50 in assay [2] (setting [4]) was 6.66 nM.
Regarding `COc1cc(-c2cc3c(s2)c(=O)n(-c2cncc4cnn(C)c24)c(=O)n3CC(F)(F)F)c(Cl)cc1F` [Example 1066], the EC50 in assay [1] (setting [3]) was 19.9 nM. Further, in assay [2] (setting [4]), the IC50 was determined as 15.3 nM.
For `COc1cc(Cl)c(-c2cc3[nH]c(=O)n(-c4cncc5ccccc45)c(=O)c3s2)cc1F` [Example 725] the same measures were 19.4 nM and 8.5 nM.
Regarding `CN1C(=O)COc2cc(-c3cccc(Cl)c3-c3ccc4c(=O)n(-c5cncc6ccccc56)c(=O)[nH]c4c3)ccc21` [Example 197], the EC50 in assay [1] (setting [3]) worked out at 8.58 nM. Moreover, in assay [2] (setting [5]), the IC50 worked out at 13.9 nM.
